ChEMBL document CHEMBL1201862, “PubChem BioAssay data set” (2004)
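Results reflect a 48-hour exposure of cells in 96-well plates to compound at five concentrations. At the GI50, growth is halved.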 The source made the active and inactive calls. No stated cut-off is given here; in the data, active = GI50 up to about 1.1 µM and inactive = higher.

Assays:
Assay in all cases: NCI-60 cell line screen, 48 h
KM12 = test system: KM12
HOP-62 = test system: HOP-62
RPMI-8226 = test system: RPMI-8226
SN12C = test system: SN12C
NCI-H460 = test system: NCI-H460
TK-10 = test system: TK-10
SK-OV-3 = test system: SK-OV-3
SF-539 = test system: SF-539
COLO 205 = test system: COLO 205
M14 = test system: M14
SNB-75 = test system: SNB-75
NCI-H522 = test system: NCI-H522
OVCAR-4 = test system: OVCAR-4
EKVX = test system: EKVX
UO-31 = test system: UO-31
HCT-15 = test system: HCT-15
HL-60 = test system: HL-60
HT-29 = test system: HT-29
SF-295 = test system: SF-295
Malme-3M = test system: Malme-3M
NCI-H23 = test system: NCI-H23
SNB-19 = test system: SNB-19
SK-MEL-5 = test system: SK-MEL-5
OVCAR-3 = test system: OVCAR-3
MDA-N = test system: MDA-N
HCT-116 = test system: HCT-116
MDA-MB-435 = test system: MDA-MB-435
NCI-H226 = test system: NCI-H226
SK-MEL-2 = test system: SK-MEL-2
OVCAR-5 = test system: OVCAR-5
786-0 = test system: 786-0
RXF 393 = test system: RXF 393
SK-MEL-28 = test system: SK-MEL-28
UACC-257 = test system: UACC-257
HOP-92 = test system: HOP-92
SF-268 = test system: SF-268
ACHN = test system: ACHN
K562 = test system: K562
A549 = test system: A549
DU-145 = test system: DU-145
U-251 = test system: U-251
SR = test system: SR
A498 = test system: A498
BT-549 = test system: BT-549
MDA-MB-231 = test system: MDA-MB-231
IGROV-1 = test system: IGROV-1
CCRF-CEM = test system: CCRF-CEM
OVCAR-8 = test system: OVCAR-8
UACC-62 = test system: UACC-62
MOLT-4 = test system: MOLT-4
CAKI-1 = test system: CAKI-1
Hs-578T = test system: Hs-578T
NCI/ADR-RES = test system: NCI/ADR-RES
LOX IMVI = test system: LOX IMVI
MCF7 = test system: MCF7
PC-3 = test system: PC-3
T47D = test system: T47D

Question: `CC(C)C(O)(C(C)C)C(C)C` was tested. Which GI50 (KM12) did it give?
Answer: > 100 µM (inactive)

Question: And the GI50 (HOP-62)?
Answer: > 100 µM (inactive)

Question: And the GI50 (RPMI-8226)?
Answer: > 100 µM (inactive)

Question: What about the GI50 (SN12C) of the same molecule?
Answer: > 100 µM (inactive)

Question: And the GI50 (NCI-H460)?
Answer: > 100 µM (inactive)

Question: And the GI50 (TK-10)?
Answer: > 100 µM (inactive)

Question: What about the GI50 (SK-OV-3) of the same molecule?
Answer: > 100 µM (inactive)

Question: And the GI50 (SF-539)?
Answer: > 100 µM (inactive)

Question: And the GI50 (COLO 205)?
Answer: > 100 µM (inactive)

Question: What about the GI50 (M14) of the same molecule?
Answer: > 100 µM (inactive)

Question: And the GI50 (SNB-75)?
Answer: > 100 µM (inactive)

Question: What about the GI50 (NCI-H522) of the same molecule?
Answer: > 100 µM (inactive)

Question: And the GI50 (OVCAR-4)?
Answer: > 100 µM (inactive)

Question: What about the GI50 (EKVX) of the same molecule?
Answer: > 100 µM (inactive)

Question: What about the GI50 (UO-31) of the same molecule?
Answer: > 100 µM (inactive)

Question: And the GI50 (HCT-15)?
Answer: > 100 µM

Question: And the GI50 (HL-60)?
Answer: > 100 µM (inactive)

Question: And the GI50 (HT-29)?
Answer: > 100 µM (inactive)

Question: And the GI50 (SF-295)?
Answer: > 100 µM (inactive)

Question: What about the GI50 (Malme-3M) of the same molecule?
Answer: > 100 µM (inactive)

Question: And the GI50 (NCI-H23)?
Answer: > 100 µM (inactive)

Question: And the GI50 (SNB-19)?
Answer: > 100 µM (inactive)

Question: And the GI50 (SK-MEL-5)?
Answer: > 100 µM (inactive)

Question: And the GI50 (OVCAR-3)?
Answer: > 100 µM (inactive)

Question: And the GI50 (MDA-N)?
Answer: > 100 µM (inactive)

Question: What about the GI50 (HCT-116) of the same molecule?
Answer: > 100 µM (inactive)

Question: And the GI50 (MDA-MB-435)?
Answer: > 100 µM (inactive)

Question: What about the GI50 (NCI-H226) of the same molecule?
Answer: > 100 µM (inactive)

Question: And the GI50 (SK-MEL-2)?
Answer: > 100 µM (inactive)

Question: What about the GI50 (OVCAR-5) of the same molecule?
Answer: > 100 µM (inactive)

Question: And the GI50 (786-0)?
Answer: > 100 µM (inactive)

Question: What about the GI50 (RXF 393) of the same molecule?
Answer: > 100 µM (inactive)

Question: What about the GI50 (SK-MEL-28) of the same molecule?
Answer: > 100 µM (inactive)

Question: What about the GI50 (UACC-257) of the same molecule?
Answer: > 100 µM (inactive)

Question: And the GI50 (HOP-92)?
Answer: > 100 µM (inactive)

Question: What about the GI50 (SF-268) of the same molecule?
Answer: > 100 µM (inactive)

Question: What about the GI50 (ACHN) of the same molecule?
Answer: > 100 µM (inactive)

Question: And the GI50 (K562)?
Answer: > 100 µM (inactive)

Question: What about the GI50 (A549) of the same molecule?
Answer: > 100 µM (inactive)

Question: What about the GI50 (DU-145) of the same molecule?
Answer: > 100 µM (inactive)

Question: What about the GI50 (U-251) of the same molecule?
Answer: > 100 µM (inactive)

Question: And the GI50 (SR)?
Answer: > 100 µM (inactive)

Question: What about the GI50 (A498) of the same molecule?
Answer: > 100 µM (inactive)

Question: And the GI50 (BT-549)?
Answer: > 100 µM (inactive)

Question: And the GI50 (MDA-MB-231)?
Answer: > 100 µM (inactive)

Question: What about the GI50 (IGROV-1) of the same molecule?
Answer: > 100 µM (inactive)

Question: And the GI50 (CCRF-CEM)?
Answer: > 100 µM (inactive)

Question: What about the GI50 (OVCAR-8) of the same molecule?
Answer: > 100 µM (inactive)

Question: What about the GI50 (UACC-62) of the same molecule?
Answer: > 100 µM (inactive)

Question: What about the GI50 (MOLT-4) of the same molecule?
Answer: > 100 µM (inactive)

Question: What about the GI50 (CAKI-1) of the same molecule?
Answer: > 100 µM (inactive)

Question: And the GI50 (Hs-578T)?
Answer: > 100 µM (inactive)

Question: And the GI50 (NCI/ADR-RES)?
Answer: > 100 µM (inactive)

Question: And the GI50 (LOX IMVI)?
Answer: > 100 µM (inactive)

Question: And the GI50 (MCF7)?
Answer: > 100 µM (inactive)

Question: And the GI50 (PC-3)?
Answer: > 100 µM (inactive)

Question: And the GI50 (T47D)?
Answer: > 100 µM (inactive)
